Blank lines part the entries; values can stand above or below the compound they belong to.
Legend:
[1] = tested on: Uromyces appendiculatus; test: In vivo preventive test on Uromyces appendiculatus (bean rust); conditions: 240 h, sprayed 72 hours before inoculation, evaluated 10 days after inoculation, read-out: efficacy; for pest or weed control at 31 ppm: 31 ppm of active ingredient; for pest or weed control at 500 ppm: 500 ppm of active ingredient; for pest or weed control at 125 ppm: 125 ppm of active ingredient
How it was run: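 Young bean plants sprayed with compound in acetone/DMSO/Tween diluted in water, then inoculated 72 h later with spore suspension. Incubated 24 h at 20° C., 100% RH, then 9 days at 20° C., 70-80% RH. Efficacy scored 10 days post-inoculation, 0% = untreated-control level, 100% = no disease.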

[2] = tested on: Xanthomonas campestris pv. campestris; test: In vivo preventive test on Xanthomonas campestris pv. campestris (black rot on cabbage); conditions: Xanthomonas campestris, sprayed 72 hours before inoculation, evaluated 8 or 10 days after inoculation, read-out: efficacy; for pest or weed control at 31 ppm: 31 ppm of active ingredient; for pest or weed control at 500 ppm: 500 ppm of active ingredient
How it was run: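 Young cabbage plants sprayed preventively with compound formulated in acetone/DMSO/Tween and diluted in water, then inoculated 72 h later with a bacterial spray. Kept at 27° C, 95% relative humidity; disease scored after 8 or 10 days as % efficacy versus solvent-treated controls (0% = control, 100% = no disease).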

[3] = tested on: Colletotrichum lindemuthianum; test: In vivo preventive test on Colletotrichum lindemuthianum (Anthracnose on bean); conditions: Colletotrichum lindemuthianum, 144 h, sprayed 72 hours before inoculation, evaluated 6 days after inoculation, read-out: efficacy; for pest or weed control at 125 ppm: 125 ppm of active ingredient; for pest or weed control at 500 ppm: 500 ppm of active ingredient
How it was run: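 Young bean plants were sprayed with compound in acetone/DMSO/Tween diluted in water, then inoculated 72 h later with C. lindemuthianum spores. Incubation was 24 h at 20 °C/100% RH, then 5 days at 20 °C/90% RH. Efficacy scored 6 days post-inoculation: 0% equals solvent-treated control, 100% means no disease.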

[4] = tested on: Pseudomonas syringae pv. tomato; test: In vivo preventive test on Pseudomonas syringae pv. tomato (bacterial speck on tomato); conditions: sprayed 72 hours before inoculation, evaluated 5 or 6 days after inoculation, read-out: efficacy; for pest or weed control at 500 ppm: 500 ppm of active ingredient; for pest or weed control at 125 ppm: 125 ppm of active ingredient
Description: The tested active ingredients were prepared by homogenization in a mixture of acetone/Dimethyl sulfoxide/Tween®, and then diluted with water to obtain the desired active material concentration.
The young plants of tomato were treated by spraying the active ingredient prepared as described above. Control plants were treated only with an aqueous solution of acetone/Dimethyl sulfoxide/Tween®.
After 72 hours, the plants were contaminated by spraying the leaves with an aqueous bacteria suspension of Pseudomonas syringae pv. tomato. The contaminated tomato plants were incubated for 4 days in saturated atmosphere at 22° C. day/20° C. night−70% HR and then for 1 or 2 days at 22° C. day/20° C. night at 70-80% relative humidity.
The test was evaluated 5 or 6 days after the inoculation. 0% means an efficacy which corresponds to that of the control plants while an efficacy of 100% means that no disease was observed.

[5] = tested on: Peronospora parasitica; test: In vivo preventive test on Peronospora parasitica (Crucifer downy mildew) on cabbage; conditions: Hyaloperonospora parasitica, 120 h, sprayed 72 hours before inoculation, evaluated 5 days after inoculation, read-out: efficacy; for pest or weed control at 125 ppm: 125 ppm of active ingredient; for pest or weed control at 31 ppm: 31 ppm of active ingredient; for pest or weed control at 500 ppm: 500 ppm of active ingredient
How it was run: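 Young cabbage plants were sprayed with compound in aqueous acetone/DMSO/Tween, then inoculated 72 h later with P. parasitica spores and held 5 days at 20 °C, 100% RH. Efficacy scored 5 days post-inoculation: 0% equals solvent-treated controls, 100% means no disease.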

[6] = tested on: Colletotrichum lindemuthianum; test: Colletotrichum lindemuthianum in vitro cell test; assay type: cell-based; conditions: 144 h, 6 days incubation, read-out: efficacy (inhibition of fungal growth; no direct activity); for inhibition at 5 ppm: 5 ppm of active ingredient
How it was run: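 C. lindemuthianum spore suspension grown in liquid glucose/peptone/yeast-extract medium with compound (final DMSO ≤1%). After 6 days, mycelial growth measured by absorbance; inhibition calculated versus fungicide-free control wells.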

[7] = tested on: Pseudomonas syringae pv. tomato; test: Pseudomonas syringae pv. tomato in vitro cell test; assay type: cell-based; conditions: 20 ppm of active ingredient, 24 h of incubation, read-out: efficacy (inhibition of bacteria growth; no direct activity)
How it was run: (§1)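 Bacteria from liquid pre-culture diluted to set OD in LB broth and exposed to compounds dissolved in DMSO (final ≤1%). After 24 h, growth read by absorbance; inhibition derived relative to compound-free control wells.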

[8] = tested on: Alternaria alternata; test: Alternaria alternata in vitro cell test; assay type: cell-based; conditions: 120 h, 5 days incubation, read-out: efficacy (inhibition of fungal growth; no direct activity); for inhibition at 5 ppm: 5 ppm of active ingredient; for inhibition at 20 ppm: 20 ppm of active ingredient
How it was run: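 A. alternata spores in glucose/peptone/yeast-extract liquid medium were exposed to DMSO-solubilized compound (final DMSO ≤1%). After 5 days incubation, mycelium growth read spectrometrically; inhibition derived from absorbance relative to fungicide-free control wells.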

[9] = tested on: salicylate responsive promoter sequence of the PR1 (pathogenesis-related protein I) gene (AT2G14610); test: Induction of defense gene expression in Arabidopsis thaliana (PR1 promoter-GFP reporter plants); assay type: in vivo; conditions: 72 h, 3rd day after spraying, mock treated leaves set as 1.00, read-out: relative fluorescence value
How it was run: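 Transgenic A. thaliana carrying GFP under the salicylate-responsive PR1 promoter, grown five days, then sprayed with compounds. Whole-plant fluorescence imaged and quantified on day 3 post-spray, expressed relative to mock-treated leaf background set at 1.00.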

[10] = tested on: Xanthomonas campestris pv. campestris; test: Xanthomonas campestris pv. campestris in vitro cell test; assay type: cell-based; conditions: 24 h of incubation, read-out: efficacy (inhibition of bacteria growth; no direct activity); for inhibition at 5 ppm: 5 ppm of active ingredient; for inhibition at 20 ppm: 20 ppm of active ingredient
How it was run: as §1

[11] = LogP by HPLC on reversed phase columns (EEC directive 79/831 Annex V.A8); assay type: physicochemical; conditions: reversed phase HPLC columns; method [a]
How it was run: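 Reversed-phase HPLC, calibrated with straight-chain alkan-2-ones (C3–C16) of known LogP; values by linear interpolation of retention times between successive alkanones. Multiple values from one method are joined by "+"; lambda-max taken from 200–400 nm UV spectra at chromatographic peaks.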

chromatographic logP [11]: 1.68
SMILES: COC(=O)[C@H](CCCNC(=N)N)NC(=O)c1sc(Cl)c(Cl)c1C [I.079]
inhibition at 5 ppm [6]: ≤ 30% | inhibition at 20 ppm ([6]; 20 ppm of active ingredient): ≤ 30% | inhibition at 20 ppm [7]: ≤ 30% | inhibition at 5 ppm [8]: ≤ 30% | pest or weed control at 500 ppm [1]: 80 to 89% | fold induction at 300 ppm [9]: > 2 | pest or weed control at 31 ppm [2]: 70 to 79% | inhibition at 5 ppm [10]: ≤ 30% | inhibition at 20 ppm [10]: ≤ 30% | pest or weed control at 500 ppm [4]: 70 to 79% | pest or weed control at 31 ppm [5]: 80 to 89% | pest or weed control at 125 ppm [5]: 90 to 100% | pest or weed control at 500 ppm [5]: 90 to 100%

chromatographic logP [11]: 3.76
SMILES: CCOC(=O)C(NC(=O)c1sc(Cl)c(Cl)c1C)C1CC1 (centres unmarked) [I.083]
inhibition at 5 ppm [6]: ≤ 30% | inhibition at 20 ppm [7]: ≤ 30% | inhibition at 5 ppm [8]: ≤ 30% | inhibition at 20 ppm [8]: ≤ 30% | pest or weed control at 31 ppm [1]: 90 to 100% | pest or weed control at 125 ppm [1]: 90 to 100% | pest or weed control at 500 ppm [1]: 90 to 100% | fold induction at 300 ppm [9]: > 2 | inhibition at 5 ppm [10]: ≤ 30% | inhibition at 20 ppm [10]: ≤ 30% | pest or weed control at 500 ppm [3]: 90 to 100% | pest or weed control at 125 ppm [4]: 70 to 79% | pest or weed control at 31 ppm [5]: 90 to 100% | pest or weed control at 125 ppm [5]: 90 to 100% | pest or weed control at 500 ppm [5]: 90 to 100%

chromatographic logP [11]: 3.81
SMILES: COC(=O)C(NC(=O)c1sc(Cl)c(Cl)c1C)c1cccs1 (centres unmarked) [I.165]
inhibition at 5 ppm [6]: ≤ 30% | inhibition at 20 ppm [7]: ≤ 30% | inhibition at 5 ppm [8]: ≤ 30% | inhibition at 20 ppm [8]: ≤ 30% | pest or weed control at 31 ppm [1]: 90 to 100% | pest or weed control at 125 ppm [1]: 90 to 100% | fold induction at 300 ppm [9]: > 2 | inhibition at 5 ppm [10]: ≤ 30% | inhibition at 20 ppm [10]: ≤ 30% | pest or weed control at 31 ppm ([3]; 31 ppm of active ingredient): 80 to 89% | pest or weed control at 125 ppm [3]: 80 to 89% | pest or weed control at 125 ppm [4]: 80 to 89% | pest or weed control at 31 ppm [5]: 90 to 100% | pest or weed control at 125 ppm [5]: 90 to 100%

chromatographic logP [11]: 3.16
SMILES: COC(=O)C(C)(C)NC(=O)c1sc(Cl)c(Cl)c1C [I.176]
inhibition at 5 ppm [6]: ≤ 30% | inhibition at 20 ppm [7]: ≤ 30% | inhibition at 5 ppm [8]: ≤ 30% | inhibition at 20 ppm [8]: ≤ 30% | pest or weed control at 31 ppm [1]: 90 to 100% | pest or weed control at 125 ppm [1]: 90 to 100% | fold induction at 75 ppm [9]: > 2 | fold induction at 300 ppm [9]: > 2 | inhibition at 5 ppm [10]: ≤ 30% | inhibition at 20 ppm [10]: ≤ 30% | pest or weed control at 125 ppm [4]: 70 to 79% | pest or weed control at 31 ppm [5]: 70 to 79% | pest or weed control at 125 ppm [5]: 90 to 100%

The remaining lines, values behind:

SMILES: CCOC(=O)C1(NC(=O)c2cc(Br)c(Br)s2)CC1 [CMP2, reference compound]
pest or weed control at 31 ppm [1]: < 40% | pest or weed control at 500 ppm [1]: < 30% | pest or weed control at 31 ppm [2]: 0% | pest or weed control at 500 ppm [2]: 0% | pest or weed control at 125 ppm [3]: 0% | pest or weed control at 500 ppm [3]: 0% | pest or weed control at 500 ppm [4]: < 40% | pest or weed control at 125 ppm [5]: < 30%

SMILES: COC(=O)C(CC(F)F)NC(=O)c1sc(Br)c(Br)c1C (centres unmarked) [I.108]
inhibition at 20 ppm [7]: ≤ 30% | inhibition at 5 ppm [8]: ≤ 30% | inhibition at 20 ppm [8]: ≤ 30% | pest or weed control at 125 ppm [1]: 90 to 100% | pest or weed control at 500 ppm [1]: 90 to 100% | fold induction at 75 ppm [9]: > 2 | fold induction at 300 ppm [9]: > 2 | inhibition at 5 ppm [10]: ≤ 30% | inhibition at 20 ppm [10]: ≤ 30% | pest or weed control at 125 ppm [3]: 80 to 89% | pest or weed control at 500 ppm [3]: 90 to 100% | chromatographic logP [11]: 3.33 | pest or weed control at 500 ppm [4]: 70 to 79% | pest or weed control at 31 ppm [5]: 70 to 79% | pest or weed control at 125 ppm [5]: 70 to 79% | pest or weed control at 500 ppm [5]: 90 to 100%

SMILES: Cc1c(C(=O)NC2(C(=O)O)CCC2)sc(Br)c1Br [I.137]
pest or weed control at 125 ppm [1]: 90 to 100% | pest or weed control at 500 ppm [1]: 90 to 100% | fold induction at 75 ppm [9]: > 2 | fold induction at 300 ppm [9]: > 2 | pest or weed control at 125 ppm ([2]; 125 ppm of active ingredient): 90 to 100% | pest or weed control at 500 ppm [2]: 90 to 100% | pest or weed control at 500 ppm [3]: 90 to 100% | chromatographic logP [11]: 2.63 | pest or weed control at 500 ppm [4]: 70 to 79% | pest or weed control at 31 ppm [5]: 70 to 79% | pest or weed control at 125 ppm [5]: 90 to 100% | pest or weed control at 500 ppm [5]: 90 to 100%
